Measured values: doi:10.1101/2023.11.24.568596v1 (biorxiv, 2023)
Values belong to the compound of their own block, whether it stands above or below them.

Experiments:
Details in all cases: binder
[1] = target: T1, MAP3K5 (Homo sapiens, UniProt Q99683)
T1 sequence (Q99683 1-1374): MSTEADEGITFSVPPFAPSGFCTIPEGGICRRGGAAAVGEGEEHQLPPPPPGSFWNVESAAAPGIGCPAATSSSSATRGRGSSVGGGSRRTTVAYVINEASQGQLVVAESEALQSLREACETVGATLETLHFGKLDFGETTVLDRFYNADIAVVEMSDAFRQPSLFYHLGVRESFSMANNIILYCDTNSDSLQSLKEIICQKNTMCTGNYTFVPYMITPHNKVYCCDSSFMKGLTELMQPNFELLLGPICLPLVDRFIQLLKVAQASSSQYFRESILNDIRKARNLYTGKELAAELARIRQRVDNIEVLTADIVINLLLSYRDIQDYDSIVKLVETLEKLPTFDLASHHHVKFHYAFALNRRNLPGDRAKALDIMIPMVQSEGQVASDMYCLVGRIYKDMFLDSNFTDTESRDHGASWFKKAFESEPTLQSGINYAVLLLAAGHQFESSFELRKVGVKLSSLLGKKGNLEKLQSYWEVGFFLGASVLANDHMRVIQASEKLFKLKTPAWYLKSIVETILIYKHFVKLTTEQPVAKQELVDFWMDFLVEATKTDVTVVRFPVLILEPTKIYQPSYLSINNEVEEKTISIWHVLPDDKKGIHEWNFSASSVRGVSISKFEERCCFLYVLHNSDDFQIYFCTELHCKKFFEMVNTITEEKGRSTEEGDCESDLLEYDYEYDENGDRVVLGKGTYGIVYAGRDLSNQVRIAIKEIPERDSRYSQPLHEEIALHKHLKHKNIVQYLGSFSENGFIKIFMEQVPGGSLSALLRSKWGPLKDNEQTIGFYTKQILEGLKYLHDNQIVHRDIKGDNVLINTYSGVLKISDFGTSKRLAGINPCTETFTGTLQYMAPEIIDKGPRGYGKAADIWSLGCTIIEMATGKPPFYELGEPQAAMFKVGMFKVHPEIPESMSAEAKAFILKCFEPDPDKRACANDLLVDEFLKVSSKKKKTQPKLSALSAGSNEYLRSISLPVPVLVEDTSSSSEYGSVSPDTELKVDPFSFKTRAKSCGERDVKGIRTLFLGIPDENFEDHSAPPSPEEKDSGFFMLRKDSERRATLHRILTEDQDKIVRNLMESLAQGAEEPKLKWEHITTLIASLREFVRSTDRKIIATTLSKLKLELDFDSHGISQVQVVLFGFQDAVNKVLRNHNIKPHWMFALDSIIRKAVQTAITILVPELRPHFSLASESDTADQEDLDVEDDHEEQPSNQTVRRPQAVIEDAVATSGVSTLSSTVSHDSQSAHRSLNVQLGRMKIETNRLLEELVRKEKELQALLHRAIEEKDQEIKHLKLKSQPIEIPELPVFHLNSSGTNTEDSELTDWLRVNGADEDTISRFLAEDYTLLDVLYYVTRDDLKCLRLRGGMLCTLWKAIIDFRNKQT

[2] = target: ABL1 (Homo sapiens, UniProt P00519)
[3] = target: T2, MAP2K6 (Homo sapiens, UniProt P52564)
T2 sequence (P52564 1-334): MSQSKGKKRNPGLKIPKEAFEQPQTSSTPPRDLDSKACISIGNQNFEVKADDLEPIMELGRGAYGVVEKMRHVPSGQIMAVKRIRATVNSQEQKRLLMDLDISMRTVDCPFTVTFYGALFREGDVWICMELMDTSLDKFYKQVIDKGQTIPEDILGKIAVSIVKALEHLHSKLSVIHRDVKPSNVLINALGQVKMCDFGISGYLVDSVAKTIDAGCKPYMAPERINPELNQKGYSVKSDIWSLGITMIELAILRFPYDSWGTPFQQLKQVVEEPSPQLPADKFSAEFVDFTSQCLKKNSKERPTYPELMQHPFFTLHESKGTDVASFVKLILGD

[4] = target: PIM1 (Homo sapiens, UniProt P11309)
[5] = target: AAK1 (Homo sapiens, UniProt Q2M2I8)
[6] = target: EphA7 (Homo sapiens, UniProt Q15375)
Chain of EphA7 (Q15375 whole entry): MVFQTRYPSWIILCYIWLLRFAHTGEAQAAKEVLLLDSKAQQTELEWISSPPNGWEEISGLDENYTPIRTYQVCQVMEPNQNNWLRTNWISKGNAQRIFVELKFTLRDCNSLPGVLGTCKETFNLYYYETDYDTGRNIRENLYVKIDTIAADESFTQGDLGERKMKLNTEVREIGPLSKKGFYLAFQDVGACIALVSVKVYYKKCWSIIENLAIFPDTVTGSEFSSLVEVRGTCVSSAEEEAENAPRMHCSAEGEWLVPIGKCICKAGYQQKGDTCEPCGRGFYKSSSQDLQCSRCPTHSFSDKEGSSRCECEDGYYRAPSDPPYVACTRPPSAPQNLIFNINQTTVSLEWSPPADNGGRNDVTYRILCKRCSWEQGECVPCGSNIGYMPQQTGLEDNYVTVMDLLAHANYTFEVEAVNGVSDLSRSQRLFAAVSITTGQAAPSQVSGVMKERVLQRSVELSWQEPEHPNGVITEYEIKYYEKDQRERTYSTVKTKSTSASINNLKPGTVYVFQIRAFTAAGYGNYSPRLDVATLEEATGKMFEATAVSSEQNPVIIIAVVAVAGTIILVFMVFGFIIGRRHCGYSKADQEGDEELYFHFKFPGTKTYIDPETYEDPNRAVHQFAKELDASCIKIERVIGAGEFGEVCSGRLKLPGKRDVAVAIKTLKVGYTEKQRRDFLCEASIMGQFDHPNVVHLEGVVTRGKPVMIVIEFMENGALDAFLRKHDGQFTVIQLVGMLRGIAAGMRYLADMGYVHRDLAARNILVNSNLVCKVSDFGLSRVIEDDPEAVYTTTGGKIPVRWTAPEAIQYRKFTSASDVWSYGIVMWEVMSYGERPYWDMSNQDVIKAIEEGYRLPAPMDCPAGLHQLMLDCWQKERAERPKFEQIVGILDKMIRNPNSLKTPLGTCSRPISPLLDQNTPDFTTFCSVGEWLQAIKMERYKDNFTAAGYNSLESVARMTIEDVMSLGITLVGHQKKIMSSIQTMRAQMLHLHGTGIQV

Chain of ABL1 (P00519 whole entry): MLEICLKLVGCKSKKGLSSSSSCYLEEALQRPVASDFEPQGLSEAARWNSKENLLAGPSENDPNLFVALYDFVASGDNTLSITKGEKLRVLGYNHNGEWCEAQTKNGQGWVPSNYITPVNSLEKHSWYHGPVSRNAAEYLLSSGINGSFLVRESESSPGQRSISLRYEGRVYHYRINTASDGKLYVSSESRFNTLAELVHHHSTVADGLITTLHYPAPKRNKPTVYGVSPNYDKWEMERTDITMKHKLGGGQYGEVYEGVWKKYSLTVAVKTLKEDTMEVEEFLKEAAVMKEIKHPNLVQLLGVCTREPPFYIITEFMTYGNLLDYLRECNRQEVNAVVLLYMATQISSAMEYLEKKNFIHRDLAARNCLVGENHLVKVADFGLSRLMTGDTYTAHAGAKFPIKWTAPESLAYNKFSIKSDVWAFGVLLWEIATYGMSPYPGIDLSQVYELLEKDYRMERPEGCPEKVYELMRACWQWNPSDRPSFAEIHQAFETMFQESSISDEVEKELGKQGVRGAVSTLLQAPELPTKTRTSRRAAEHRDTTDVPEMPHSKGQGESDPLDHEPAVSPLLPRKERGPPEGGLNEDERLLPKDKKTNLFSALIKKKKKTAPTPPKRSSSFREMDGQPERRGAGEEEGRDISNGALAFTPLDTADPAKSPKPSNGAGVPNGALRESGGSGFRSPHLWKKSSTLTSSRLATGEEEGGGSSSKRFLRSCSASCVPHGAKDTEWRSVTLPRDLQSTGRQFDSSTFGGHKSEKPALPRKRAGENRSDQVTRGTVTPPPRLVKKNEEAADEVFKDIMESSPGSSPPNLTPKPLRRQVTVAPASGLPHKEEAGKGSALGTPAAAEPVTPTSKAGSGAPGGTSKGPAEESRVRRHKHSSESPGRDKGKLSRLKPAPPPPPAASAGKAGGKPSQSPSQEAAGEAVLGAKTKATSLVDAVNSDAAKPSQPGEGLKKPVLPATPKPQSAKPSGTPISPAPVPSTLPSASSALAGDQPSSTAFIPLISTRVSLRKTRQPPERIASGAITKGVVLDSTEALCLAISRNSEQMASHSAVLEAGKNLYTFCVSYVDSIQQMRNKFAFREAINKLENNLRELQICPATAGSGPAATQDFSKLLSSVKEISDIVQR
Chain of AAK1 (Q2M2I8 whole entry): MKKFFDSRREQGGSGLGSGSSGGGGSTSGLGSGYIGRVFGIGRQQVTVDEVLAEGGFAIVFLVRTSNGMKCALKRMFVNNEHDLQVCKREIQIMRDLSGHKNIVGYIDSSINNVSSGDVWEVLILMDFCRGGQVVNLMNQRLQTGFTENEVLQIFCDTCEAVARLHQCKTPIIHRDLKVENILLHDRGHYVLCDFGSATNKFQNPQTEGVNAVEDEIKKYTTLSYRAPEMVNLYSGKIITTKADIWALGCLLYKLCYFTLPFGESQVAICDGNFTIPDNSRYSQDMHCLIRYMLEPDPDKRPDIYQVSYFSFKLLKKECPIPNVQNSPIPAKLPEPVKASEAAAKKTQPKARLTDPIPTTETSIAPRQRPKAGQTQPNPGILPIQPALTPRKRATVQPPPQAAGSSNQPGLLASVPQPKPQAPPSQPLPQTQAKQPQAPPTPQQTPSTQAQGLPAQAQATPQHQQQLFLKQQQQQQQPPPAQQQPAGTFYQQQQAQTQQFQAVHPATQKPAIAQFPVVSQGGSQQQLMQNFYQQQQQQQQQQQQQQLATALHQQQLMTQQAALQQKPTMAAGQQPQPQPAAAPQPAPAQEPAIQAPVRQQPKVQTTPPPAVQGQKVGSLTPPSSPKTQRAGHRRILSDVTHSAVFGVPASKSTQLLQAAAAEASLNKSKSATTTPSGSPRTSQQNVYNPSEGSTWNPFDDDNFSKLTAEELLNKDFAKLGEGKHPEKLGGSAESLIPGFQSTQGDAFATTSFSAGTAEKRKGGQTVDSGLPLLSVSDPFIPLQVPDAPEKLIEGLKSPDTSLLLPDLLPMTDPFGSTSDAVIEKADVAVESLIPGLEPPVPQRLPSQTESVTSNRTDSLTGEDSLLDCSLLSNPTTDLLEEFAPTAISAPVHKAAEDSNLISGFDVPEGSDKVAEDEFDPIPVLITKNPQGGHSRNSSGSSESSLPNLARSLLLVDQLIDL
Chain of PIM1 (P11309 whole entry): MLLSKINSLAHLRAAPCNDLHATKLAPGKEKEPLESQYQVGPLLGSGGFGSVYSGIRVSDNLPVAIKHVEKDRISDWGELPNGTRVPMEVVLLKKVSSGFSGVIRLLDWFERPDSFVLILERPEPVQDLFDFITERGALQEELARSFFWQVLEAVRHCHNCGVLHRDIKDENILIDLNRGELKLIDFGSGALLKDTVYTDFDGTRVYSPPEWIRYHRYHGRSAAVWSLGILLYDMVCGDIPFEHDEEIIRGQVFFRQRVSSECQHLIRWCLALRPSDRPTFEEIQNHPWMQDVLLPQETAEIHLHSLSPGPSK

SMILES: CNc1ncc2cc(-c3ccc(-c4cccc(C)n4)cc3Cl)c(=O)n(CCCCN)c2n1 [compound 20, MRLW5]
ΔTm MRLW5 (20) [1]: 12.3 °C
ΔTm MRLW5 (20) [2]: 4.9 °C
ΔTm MRLW5 (20) [3]: 5.7 °C
ΔTm MRLW5 (20) [4]: -0.1 °C
ΔTm MRLW5 (20) [5]: 1.4 °C
ΔTm MRLW5 (20) [6]: 7.7 °C

SMILES: Cc1cccc(-c2ccc(-c3cc4cnc(NC(CO)CO)nc4n(CCCCN)c3=O)c(Cl)c2)n1 [compound 24, 8-(4-Aminobutyl)-6-(2-chloro-4-(6-methylpyridin-2-yl)phenyl)-2-((1,3-dihydroxypropan-2-yl)amino)pyrido[2,3-d]pyrimidin-7(8H)-one]
ΔTm MR24 (24) [1]: 9.0 °C
ΔTm MR24 (24) [2]: 1.4 °C
ΔTm MR24 (24) [3]: 2.8 °C
ΔTm MR24 (24) [4]: 0.5 °C
ΔTm MR24 (24) [5]: -0.4 °C
ΔTm MR24 (24) [6]: 0.3 °C

SMILES: CNc1ncc2cc(-c3ccc(-c4cccc(C)n4)cc3Cl)c(=O)n(C[C@H]3CC[C@H](N)CC3)c2n1 [compound 23, 23]
ΔTm 23 [1]: 12.4 °C
ΔTm 23 [2]: 7.9 °C
ΔTm 23 [3]: 8.3 °C
ΔTm 23 [4]: -0.7 °C
ΔTm 23 [5]: 3.3 °C
ΔTm 23 [6]: 10.4 °C

SMILES: CNc1ncc2cc(-c3ccc(-c4cccc(C)n4)cc3Cl)c(=O)n(CCC3CCNCC3)c2n1 [compound 22, 6-(2-Chloro-4-(6-methylpyridin-2-yl)phenyl)-2-(methylamino)-8-(2-(piperidin-4-yl)ethyl)pyrido[2,3-d]pyrimidin-7(8H)-one]
ΔTm 22 [1]: 12.0 °C
ΔTm 22 [2]: 4.9 °C
ΔTm 22 [3]: 5.6 °C
ΔTm 22 [4]: -0.4 °C
ΔTm 22 [5]: 2.8 °C
ΔTm 22 [6]: 7.7 °C

The next lines start with the values.

ΔTm 25 [1]: 11.8 °C
ΔTm 25 [2]: 3.9 °C
ΔTm 25 [3]: 8.3 °C
ΔTm 25 [4]: 0.3 °C
ΔTm 25 [5]: 0.8 °C
ΔTm 25 [6]: 5.1 °C
SMILES: Cc1cccc(-c2ccc(-c3cc4cnc(NCCCc5ccc(N)cc5)nc4n(CCCCN)c3=O)c(Cl)c2)n1 [compound 25, 8-(4-Aminobutyl)-2-((3-(4-aminophenyl)propyl)amino)-6-(2-chloro-4-(6-methylpyridin-2-yl)phenyl)pyrido[2,3-d]pyrimidin-7(8H)-one]

ΔTm MR26 (26) [1]: 9.8 °C
ΔTm MR26 (26) [2]: 2.9 °C
ΔTm MR26 (26) [3]: 3.1 °C
ΔTm MR26 (26) [4]: 0.3 °C
ΔTm MR26 (26) [5]: -0.2 °C
ΔTm MR26 (26) [6]: 2.7 °C
SMILES: Cc1cccc(-c2ccc(-c3cc4cnc(NCCCN5CCOCC5)nc4n(CCCCN)c3=O)c(Cl)c2)n1 [compound 26, MR26]
